Results as given in US20260335398A1, “METHODS FOR TREATING PANCREATIC CANCER WITH A COMBINATION OF DES-METHYL PATEAMINE A AND A CLASS I HDAC INHIBITOR” (Baylor University, priority 2023, published 2026).

Assays:
c-MYC = test: Immunoblot of c-MYC protein levels in PDAC cell lines treated with DMPatA and DMDAPatA (FIG. 6B); format: cell-based; conditions: Capan-1, PANC-1, AsPC-1, MIA PaCa-2; 24 and 48 hours; DMPatA 10 and 20 nM, DMDAPatA 40 nM
Method: FIG. 6B compares immunoblots of c-MYC protein levels from whole cell extracts of various PDAC cell lines (Capan-1, PANC-t, AsPC-1, MIA PaCa-2) treated with DMPatA (10 nM and 20 nM) and DMDPatA ([…]) (40 nM). Treatment was for 24 and 48 hours.
Western blotting was carried out as previously described (Luchenko V L, Litman T, Chakraborty A R, et al. 65. Membranes were probed with primary antibodies: Phospho-Histone H2A.X (Ser139) (1:1000, Millipore Sigma #05-636), GAPDH (1:10000, Abcam #ab8245), c-Myc (1:1000, Abcam #ab32072), β-Actin (1:1000, Cell Signaling Technology (CST), #8457), Phospho-RPA32/RPA2 (Ser33) (1:1000, Cell Signaling Technology #10148), Phospho-Chk1 (Ser345) (1:1000, CST #2341), and secondary antibodies IRDye® 680RD Goat anti-Mouse and IRDye® 800CW Goat anti-Rabbit (both from LI-COR Biosciences). Signal quantification was performed using the Odyssey CLx imaging system (LI-COR Biosciences), capturing various exposures within the linear range with ImageStudio software V3.1 (LI-COR Biosciences).

[1] = Body weight of xenograft mice (FIG. 2B); format: in vivo, athymic nude mice; conditions: IP; romidepsin 0.75 mg/kg, DMPatA 0.075 mg/kg
From the text: FIGS. 2A and 2B illustrate the results of a MIA PaCa-2 xenograft model of PDAC in male athymic nude mice. FIG. 2A compares tumor growth (mm^3) in mice treated with the indicated concentrations of combination, romidepsin and DMPatA using IP route and vehicles described in the materials and methods section below. FIG. 2B compares body weight (g) of mice treated with the combination and single agents following treatment. FIGS. 2C and 2D compare quantification of H3K9ac and c-MYC antibodies. Frozen sections from MIA PaCa-2 xenograft tumor tissues were subjected to immunohistochemical analysis using antibodies against H3K9ac, and c-MYC. Fluorescence images were captured using fluorescent microscopy and the fluorescent signal from H3K9ac and c-MYC antibodies were quantified. To quantify fluorescence intensity at least 500 cells per condition were measured for each antibody at 40× magnification. The median of the signal intensity is shown. Statistical significance was determined by one-way ANOVA using Tukey multiple comparisons test, ****p value<0.0001.
Animal studies were performed according to Institutional Animal Care and Use Committee (IACUC) protocol number AC-AABD2601. Following the establishment of initial dose levels for individual drugs, efficacy of the combination and single agents in a MIA PaCa-2 xenograft model was assessed at a tolerable dose and schedule. […]

[2] = tested on: PDAC cell lines (Capan-1, PANC-1, AsPC-1, MIA PaCa-2); test: Cytotoxicity/cell viability (CellTiter-Glo) of DMPatA on PDAC cell lines, 48 h (FIG. 6A); format: cell-based; conditions: four PDAC cell lines (Capan-1, PANC-1, AsPC-1, MIA PaCa-2)
Method: FIG. 6A compares cytotoxicity graphs of the effect (viability) of DMPatA on various PDAC cell lines (Capan-1, PANC-1, AsPC-1, MIA PaCa-2) following 48 hours of treatment.
(§1) Previous studies have reported that inhibitors of translation initiation prevent cell proliferation and reduce levels of critical oncoproteins such as MYC and cyclinD1. The effects of DMPatA, a novel inhibitor of eIF4A helicase, was evaluated on four PDAC cell lines. All cells were sensitive to treatment with IC50s ranging from 2.8 to 10 nM (FIG. 6A). […] The efficacy of another eIF4Ai, zotatifin (eFT226), was evaluated on MIA PaCa-2 and KLM cells.
(§2) Cell viability was determined using CellTiter-Glo® reagent (Promega, #G7570) following the manufacturer's instructions. Cells were seeded at […] in white 96-well plates and grown overnight. They were then treated and incubated at 37 °C with 5% CO2. After incubation, assay reagent was added, and luminescent signals were quantified using a microplate reader (PHERAstar® FS, BMG LABTECH, Ortenberg, Germany). Caspase-Glo 3/7 assay (Promega, #G8091) was also employed following the manufacturer's instructions to measure apoptosis.

MIA PaCa-2 and KLM cells [3] = test: RNA-seq gene expression analysis (FIG. 9A); format: cell-based; conditions: total 18 h (6 h romidepsin 15 nM + 12 h with/without DMPatA 2 nM); |log2FC|≥1, adjusted p<0.05
Method: Plots show a significant increase in the overall gene expression in the cells treated with the combination. Cells treated for a total of 18 h (i.e., 6-hour romidepsin followed by 12-hour incubation with 2 nM DMPatA (combo) or without (Romi alone)).
To gain further insight into the effects of the combination treatment gene expression was profiled in MIA PaCa-2 and KLM cells treated with vehicle, the single agents, or the combination for a total of 18 h (i.e., 6-hour romidepsin treatment followed by 12-hour washout with 2 nM DMPatA or without), probing whether alterations observed following combination treatment could be explained by changes in gene expression.
Total RNA was extracted using RNeasy mini kit (Qiagen) from cells collected after 18 hours (6 hours romidepsin (15 nM)+12 hours washout with or without DMPatA (2 nM)) incubation with or without drugs. RNA quantitation and quality were assessed by the Agilent Bioanalyzer 2100 at the Molecular Pathology Shared Resource of the Herbert Irving Comprehensive Cancer Center at Columbia University (mBank). RNA library preparation and sequencing was performed at Columbia University's Sulzberger Genome Center. Briefly, poly-A pull-down was used to enrich mRNAs from total RNA samples, followed by library construction using Illumina TruSeq chemistry. Libraries were then sequenced using Illumina NovaSeq 6000. For the DESeq2 (v 1.40.2) analysis the data were imported with tximport in DESeq2 and a dds object was generated. Variance stabilizing transformation was used on the object and the output was used for the heatmap and PCA plots. Abundance of transcripts was estimated by pseudoalignment using kallisto, and downstream analysis was performed using R (v4.3.1) and the indicated packages. […] Differentially expressed genes were determined using linear regression method (limma v3.56.2), and genes with |log 2FC|≥1 and adjusted p-value <0.05 were plotted accordingly on volcano plots and heatmap (ggplot2 v3.5.0 and ComplexHeatmap v2.16.0). […]

MIA PaCa-2 and KLM cells [4] = test: Cell proliferation with zotatifin on MIA PaCa-2 and KLM cells; format: cell-based
Method: as §1, §2

## CC(/C=C/C(C)=C/[C@@H]1Cc2nc(cs2)CCCCC(=O)O[C@@H](C)C/C(C)=C/C=C\C(=O)O1)=C\CN(C)C [DMDAPatA, des-methyl des-amino pateamine A]
c-MYC
  c-MYC protein levels: reduced c-MYC levels in all cell lines

## CC(/C=C/C(C)=C/[C@@H]1Cc2nc(cs2)CC[C@@H](N)CC(=O)O[C@@H](C)C/C(C)=C/C=C\C(=O)O1)=C\CN(C)C [DMPatA, des-methyl pateamine A]
[1]
  body weight vs vehicle: neither the single agent nor the combination treatments had a significant impact on weight
[2]
  IC50: 2.8 to 10 nM
MIA PaCa-2 and KLM cells [3]
  number of differentially expressed genes (DEGs): 1443 DEGs

## COc1cc2c(c(OC)n1)[C@]1(O)[C@H](O)[C@H](CN(C)C)[C@@H](c3ccccc3)[C@]1(c1ccc(C#N)cc1)O2 [zotatifin]
MIA PaCa-2 and KLM cells [4]
  potency in suppressing proliferation, DMPatA vs zotatifin: reduced potency, compared to DMPatA
